Laboratory results from US20190038597A1, “PREVENTION OF VASCULAR AND CARDIAC FIBROSIS VIA IRE1ALPHA INHIBITION” (McMaster University, priority 2017, published 2019).

Assays:
[1] = test system: primary rat renal fibroblasts; assay: Picro-Sirius Red assay of collagen production in renal fibroblasts; type: cell-based; settings: AA2P, TGF-β1, 72 h co-treatment, FIG. 3
Method: Rat renal fibroblasts were treated with L-ascorbic acid-2-phosphate, TGF-β1 and 4μ8c for 72 h. Collagen production was measured by a Picro-Sirius Red assay. **, p<0.01.
(§1) VSMCs were isolated from the aortas of 5-week old WKY rats using the explant method^29. The thoracic aorta was removed from the animal and placed in ice-cold 5× Antibiotics-Antimycotics solution (ThermoFisher). The adventitia was gently removed and the aorta was cut longitudinally. The endothelial layer was removed by gentle scraping with forceps. The aorta was cut into 3 mm^2 squares and placed on a 6 well plate in DMEM/F12 medium containing 10% fetal bovine serum (FBS). Explants were incubated undisturbed in a 5% CO2 incubator at 37° C. for 1 week and then passaged. Sprague-Dawley renal fibroblasts were purchased (Cell Biologics) and cultured in low glucose DMEM/F12 medium containing 10% FBS, streptomycin (100 μgimp, and penicillin (100 U/ml, Invitrogen, Burlington, ON). Cells between passages 5 and 10 were used for experiments. Cells were cultured in medium containing 1% FBS overnight before treatment.
Collagen synthesis was measured using a Picro-Sirius Red-based assay as previously described^30. Briefly, cells cultured on a 96 well plate were fixed in methanol for 10 minutes at −20° C. […] Absorbance at 540 nm was measured using a Spectramax Plus Microplate Reader (Molecular Devices). […]

[2] = test system: SHR/L-NAME model of hypertension; assay: Radiotelemetry blood pressure and heart rate in L-NAME-treated SHRs; type: in vivo, rat
Method: 12-14 week old male SHRs were implanted with radiotelemetry devices and randomized to receive vehicle, L-NAME (50 mg/L) or L-NAME and 4μ8c (2.5 mg/kg/day i.p.) for 18 days. Systolic (A), diastolic (B), and heart rate (C) were monitored. Data is presented as mean±SEM. *, p<0.05 vs. NT; #, p<0.05 vs. L-NAME. N≥4 per group.
12-14 week old male SHRs were used to determine the effect of pharmacological IRE1α inhibition on L-NAME-induced vascular stiffening. They were maintained on a 12-hour light-dark cycle with rat chow and water ad libitium. Animals were implanted with radio-telemetry devices (Data Science International, St. Paul, Minn., USA) one week before the start of the study. Animals were randomized into one of three groups (n=6 per group): 1) No treatment, 2) L-NAME (50 mg/L in drinking water, Sigma-Aldrich), or 3) L-NAME+4μ8c (2.5 mg/kg/day i.p., Millipore). 4μ8c was administered in a vehicle of 10% DMSO, 10% Tween-80 and 80% normal saline. Animals in Group 2 received daily injections of the vehicle. All animals were fed a normal chow diet. At 18 days, animals were sacrificed, organs were harvested and the aorta was collected for mechanical and structural analysis. All animal work was performed according to the guidelines approved by the McMaster University Animal Research Ethics Board.
12-14 week old SHRs were implanted with radiotelemetry devices and treated with the nitric oxide synthase inhibitor L-NAME for 18 days. Rats were given daily injections of either vehicle or 4μ8c (2.5 mg/kg/day i.p.). […] At Day 6, SBP had increased from 187.4±5.4 mmHg to 228.0±15.5 mmHg (p<0.05) and DBP from 134.8±6.5 mmHg to 174.5±13.6 mmHg. At Day 14, SBP and DBP reached a peak of 262.6±13.9 mmHg and 210.4±14.8 mmHg, respectively. […] In the L-NAME+4μ8c group, SBP increased from 166.6±8.4 mmHg at baseline to 216.7±4.8 mmHg at Day 6 while DBP increased from 124.7±5.5 mmHg at baseline to 166.2±8.2 mmHg at Day 6. SBP and DBP peaked at 232.3±5.4 mmHg and 192.1±17.0 mmHg, respectively, at Day 9. […] Vessels were stained with PicroSirius Red and imaged using a light microscope (FIG. 5A). Collagen content in homogenized aortic tissue was measured using the PSR-based colorometric assay.

[3] = test system: VSMCs; assay: Picro-Sirius Red assay of collagen synthesis in VSMCs; type: cell-based, rat
Method: VSMCs were cultured in DMEM/F12 containing 1% FBS. Confluent cells were treated with L-ascorbic acid-2-phosphate (100 μg/ml) and either TGF-β1 (5 ng/ml) or Ang II (1 μM). (A) Agarose gel for assessment of TGF-β1-induced XBP1 splicing in VSMCs after 24 h. (B) Picro-Sirius Red assay for measurement of collagen deposition induced by combined TGF-β1 and AA2P treatment after 72 h, and inhibition by 4μ8c and STF-083010. (C) Western blot for assessment of collagen chaperone expression after treatment of TGF-β1 and 4μ8c for 48 h. *, p<0.05. (D) Measurement of Ang II-induced collagen production and inhibition by 4μ8c and STF-083010 after 72 h.
as §1
Collagen synthesis was measured using a Picro-Sirius Red-based assay as previously described^30. Briefly, cells cultured on a 96 well plate were fixed in methanol for 10 minutes at −20° C. Cells were washed once with PBS and incubated with Picrosirius Red stain (0.1% Direct Red 80 in saturated picric acid) for 1 h at room temperature. After the staining solution was removed, the cells were washed three times with 0.1% acetic acid and then imaged. The dye was then eluted with 0.1 N NaOH for 10 minutes on a rocking platform. Absorbance at 540 nm was measured using a Spectramax Plus Microplate Reader (Molecular Devices).
Cells were co-treated with either 4μ8c or S′TF-083010 to inhibit IRE1α endonuclease activity. TGF-β1 induced XBP1 splicing after 24 h, which was blocked by co-treatment with 4μ8c (FIG. 2A). Collagen production was measured using a Picro-Sirius Red-based colorimetric assay. TGF-β1 combined with AA2P induced collagen synthesis in the VSMCs, which was inhibited by co-treatment with 4μ8c or STF-083010 (FIG. 2B).

[4] = L-NAME+4μ8c group, peak at Day 9
[5] = SHR, L-NAME 50 mg/L, 4μ8c 2.5 mg/kg/day i.p., 18 days

## Cc1cc(=O)oc2c(C=O)c(O)ccc12 [4μ8c, 7-Hydroxy-4-methyl-2-oxo-2H-chromene-8-carbaldehyde]
[1]
  collagen levels in response to TGF-β1: reduced
[2]; L-NAME+4μ8c group, Day 6
  DBP: 166.2±8.2 mmHg
  SBP: 216.7±4.8 mmHg
[2]; L-NAME+4μ8c group, baseline
  DBP: 124.7±5.5 mmHg
  SBP: 166.6±8.4 mmHg
[2]; [4]
  DBP peak: 192.1±17.0 mmHg
  SBP peak: 232.3±5.4 mmHg
[2]; [5]
  effect on L-NAME-induced elevation in blood pressure: did not have an effect
  effect on L-NAME-induced elevation in heart rate: did not have an effect
[3]; 72 h, co-treatment, FIG. 2B
  collagen synthesis induced by TGF-β1 combined with AA2P: inhibited
[3]; Ang II (1 μM) 72 h, FIG. 2D
  collagen synthesis induced by Ang II: blocked
